Test results taken from patent publication US20250355000A1, “URINARY BRANCHED-CHAIN AMINO ACIDS (UBCAAS) AS INSULIN RESISTANCE BIOMARKERS” (SKILLCELL, priority 2022, published 2025).
Like-named read-outs stand apart in the source and are kept apart here.

System: Leucine Dehydrogenase (LeuDH) from B. cereus containing a SUMO-protein domain
Assay type: biochemical, Bacillus cereus
Settings: for A 600 nm (absorbance values for L-amino acids): 15 minutes at 37° C., 100 mM Tris-HCl pH7.5, MTT reduction
Excerpt: The IDIr biochemical network uses the enzyme Leucine Dehydrogenase (LeuDH) for oxidizing the branched-chain amino acids (BCAA) and for producing the colorimetric substrate, blue reduced MTT. The absorbance values are proportional to BCAA levels. Detection and measurement branched-chain amino acids in biological fluids (serum and urine) correlate with insulin-resistance indexes. Thus, the substrate specificity (other L-amino acids than BCAA) of Leucine Dehydrogenase (LeuDH) from B. cereus containing a SUMO-protein domain needs to be verified to avoid erroneous results using IDIr test.
Analysis of the substrate specificity of the Leucine Dehydrogenase co-expressed with SUMO-protein domain was done using 18 natural proteinogenic L-amino acids in the same conditions used for determining the kinetic parameter of LeuDH with BCAA as substrates.
All solutions were prepared in 100 mM Tris-HCl pH7.5 buffer
• NAD+50 mM • Ascorbate Oxidase 10 U/mL • 1M-PMS 0.2 mM
• MTT 2 mM • Leucine Dehydrogenase 75 U/mL • L-amino acids • L-Leucine 1 mM • L-Valine 1 mM • L-Isoleucine 1 mM • L-Alanine 1 mM • L-Arginine 1 mM • L-Aspartate 1 mM • L-Glycine 1 mM • L-Glutamate 1 mM • L-Glutamine 1 mM • L-Histidine 1 mM • L-Lysine 1 mM • L-Methionine 1 mM • L-Phenylalanine 1 mM • L-Proline 1 mM • L-Serine 1 mM • L-Threonine 1 mM • L-Tryptophan 1 mM • L-Tyrosine 1 mM
8 μL of A Solution were pre-incubated with 53 μL of each L-amino acid separately in a well of the microplate for 5 minutes at 37° C. Then, 4 μL of B Solution were added. The kinetics of the reactions were followed during 30 minutes at 37° C. Absorbances were read at 600 nm every 60 seconds.
Blanks were performed using Tris-HCl 100 mM pH 7.5 buffer containing no L-amino acid during the incubation with A solution. Experiments were performed in duplicates. Results were normalized to the oxidation of L-leucine at 15 minutes.
Oxidation of L-amino acids was followed by colorimetric reduction of Thyazolyl Blue Tetrazolium Bromide. Absorbance at 600 nm is proportional to the concentration of L-amino acids in solution.

[1] = normalized to L-Leucine oxidation at 15 minutes (100%), 37° C., L-amino acid 1 mM

Structure (SMILES) | A 600 nm (absorbance values for L-amino acids) (L-amino acid 1 mM) | Normalized activity (%) [1] [%] | Normalized activity (%)
N[C@@H](Cc1c[nH]cn1)C(=O)O [HIS, L-Histidine] | 0.001 | 0.2 | –
N=C(N)NCCC[C@H](N)C(=O)O [ARG, L-Arginine] | 0.003 | 0.4 | –
N[C@@H](Cc1ccccc1)C(=O)O [PHE, L-Phenylalanine] | 0.002 | 0.3 | –
N[C@@H](Cc1ccc(O)cc1)C(=O)O [TYR, L-Tyrosine] | 0.002 | 0.3 | –
C[C@@H](O)[C@H](N)C(=O)O [THR, L-Threonine] | 0.002 | 0.3 | –
CC[C@H](C)[C@H](N)C(=O)O [ILE, L-Isoleucine] | 0.601 | 102.5 | –
CC(C)[C@H](N)C(=O)O [VAL, L-Valine] | 0.612 | 104.3 | –
N[C@@H](Cc1c[nH]c2ccccc12)C(=O)O [TRP, L-Tryptophan] | 0.003 | 0.4 | –
N[C@@H](CC(=O)O)C(=O)O [ASP, L-Aspartate] | 0.000 | 0.0 | –
CSCC[C@H](N)C(=O)O [MET, L-Methionine] | 0.019 | – | 3.2
NCCCC[C@H](N)C(=O)O [LYS, L-Lysine] | 0.001 | 0.1 | –
N[C@@H](CCC(=O)O)C(=O)O [GLU, L-Glutamate] | 0.002 | 0.3 | –
NCC(=O)O [GLY, L-Glycine] | 0.001 | – | 0.1
N[C@@H](CO)C(=O)O [SER, L-Serine] | 0.001 | 0.2 | –
NC(=O)CC[C@H](N)C(=O)O [GLN, L-Glutamine] | 0.001 | 0.2 | –
O=C(O)[C@@H]1CCCN1 [PRO, L-Proline] | 0.008 | – | 1.3
CC(C)C[C@H](N)C(=O)O [LEU, L-Leucine] | 0.587 | 100.0 | –
C[C@H](N)C(=O)O [ALA, L-Alanine] | 0.002 | 0.3 | –
